Reference: US8741559B2, “Cellular assay employing detectable protein” (DiscoveRx Corporation, priority 2009, dated 2014)

What was measured:
[1] = tested on: FRAP1; test: Phospho-Akt1 (Ser473) cellular assay; format: cell-based, human; conditions: Hek 293 cells; for dose response in the phospho-Akt1 (Ser473) assay: FIG. 5; for IC50 through the FRAP1 pathway compared with the PDPK1 pathway: anti-phospho Akt1 (Ser473) versus anti-phospho Akt (Thr308) assays
Experimental: (§1) In this cellular assay, compounds were tested for their ability to inhibit Braf, by measuring the phosphorylation of Mek1, a direct kinase substrate of Braf. A375 cells expressing the constitutively active Braf V600E mutation were plated at a density of 3e5 cells/mL in a 10 cm plate and transfected with expression plasmid encoding detectable protein (16 μg) in 1 mL OPTI-MEM buffer (GIBCO/Invitrogen) with 40 μL Lipofectamine 2000 (Invitrogen) and incubated at 37° C. for 18-22 h. On the following day, media was removed and cells washed with PBS, trypsinized then quenched with M3 media (DMEM containing 10% FBS). Cells were counted and resuspended in M3 complete media to a density of […] and then plated at 50,000 cells/well/100 μL into a 96-well plate and incubated at 37° C. for 3h. Media was then removed and starvation media (0.5% FBS/DMEM) was added to the wells and allowed to incubate overnight. On the following day, the cells were incubated with compound in M3 starvation media and incubated at 37° C. for 2 hours.
The cells were centrifuged at 3000 rpm for 20 minutes. […] Lysate dilution was carried out in two steps. The 96-well plate containing 10 μL extract aliquot was thawed at room temp, and 40 microliters of a solution of 0.1% BSA /1× PBS 0.05% Tween with 2 nM nucleic acid tag serving as the NF-κB probe was added, and mixed by orbital shaking at 450 rpm at room temp for 10 min. Then 270 microliters of a solution of 20 microgram per mL sheared salmon sperm DNA in 0.1% BSA/1× PBS 0.05was added, and mixed gently by pipetting up and down.
On the following day, beads were pelleted then washed/blocked and resuspended in 1-2×2% BSA/PBST and plated out onto a 96-well polypropylene plate at half the original stock concentration. The phospho-MEK1 binding assay was carried out on a separate plate containing 25 μL of beads and 100 μL 2% BSA/PBST which was shaken until the addition of cell lysate. For the binding assay, beads were first pelleted and the buffer aspirated, and then 100 μL of diluted lysate was added to each well and the plate was shaken at room temperature for one hour. After the binding step, the beads were pelleted for 4 minutes, the buffer aspirated and 150 μL of PBST was added. The plate was briefly shaken and then pelleted over a magnet and then washed two to four times with wash buffer (1× PBS/0.05% Tween 20) to remove unbound proteins. After the final wash, the beads were resuspended in 150 μL of IgG elution buffer (Pierce Cat No. 21004) supplemented with Tween 20 to 0.05% and incubated at room temperature with shaking for 60 minutes. After pelleting the beads, 50 μL of the eluted mixture was removed, and added to 30 μL of 200 mM Tris base, mixed well, and then transferred to the DNA detection assay. For qPCR, 2.5 μL was transferred to 7.5 μL of mastermix with appropriate primers and probes (Applied Biosystems).
As shown in the diagram in FIG. 2, the PIK3CA kinase mediates signaling through two separate pathways, e.g., by direct activation of the kinase substrates FRAP1 (the kinase domain of mTOR), or other less-studied kinases known as “PDK2” in the literature and PDPK1, both of which in turn phosphorylate Akt. […] Therefore, using this cellular assay, compounds were interrogated for their inhibitory mechanism not only against PIK3CA but also against FRAP1 or PDPK1, by measuring site-specific phosphorylation of Akt. […] A binding assay using anti-total Akt1 antibody was also run in parallel to normalize the amount of measured phospho-Akt1 across wells.

[2] = tested on: PDPK1; test: Phospho-Akt1 (Thr308) cellular assay; format: cell-based, human; conditions: Hek 293 cells, FIG. 6
Experimental: as §1, with “On the following day, the cells were incubated with compound in M3 starvation media and incubated at 37° C. for 2 hours.” left out
As shown in the diagram in FIG. 2, the PIK3CA kinase mediates signaling through two separate pathways, e.g., by direct activation of the kinase substrates FRAP1 (the kinase domain of mTOR), or other less-studied kinases known as “PDK2” in the literature and PDPK1, both of which in turn phosphorylate Akt. […] A binding assay using anti-total Akt1 antibody was also run in parallel to normalize the amount of measured phospho-Akt1 across wells.

IC50 through the FRAP1 pathway compared with the PDPK1 pathway [1] | Compound | dose response in the phospho-Akt1 (Ser473) assay [1] | inhibition of Thr308 phosphorylation of Akt [2]
selectively inhibiting PDPK1 over FRAP1 | O=C(NCCCNc1nc(Nc2cccc(NC(=O)N3CCCC3)c2)ncc1I)c1cccs1 [BX-795] | insensitive | –
– | C[C@@H]1C[C@H]2O[C@@H]2/C=C\C=C\C(=O)Cc2c(Cl)c(O)cc(O)c2C(=O)O1 [radicicol] | partially sensitive | could only partially inhibit Thr308 phosphorylation
nearly equipotent IC50 | Oc1cccc(-c2nc(N3CCOCC3)c3oc4ncccc4c3n2)c1 [PI103] | – | –
– | Nc1nc(N)c2nc(-c3cccc(O)c3)c(-c3cccc(O)c3)nc2n1 [TG-100-115] | insensitive | –
nearly equipotent IC50s | FC(F)c1nc2ccccc2n1-c1nc(N2CCOCC2)nc(N2CCOCC2)n1 [ZSTK-474] | – | –
